The target in one data set is GLP-1R (Homo sapiens, UniProt P43220). The data set can be described thus: GLP-1R activation: cAMP increase in CHO cells stably expressing GLP-1R. Format: cell-based. To be noted: cAMP increase, CHO cells stably expressing GLP-1R, 10 point dose response, 30 minutes incubation; read-out: EC50.
Data set [1] in a line: Microsomal stability, human liver microsomes (predicted hepatic clearance). As to conditions: predicted from in vitro microsomal stability data.

These results are taken from patent publication US11702404B2, “GLP-1R modulating compounds” (priority 2019, dated 2023).

For orientation: EC50 means the concentration needed to bring the measured effect to its halfway point.

Chain of GLP-1R (P43220 24-463): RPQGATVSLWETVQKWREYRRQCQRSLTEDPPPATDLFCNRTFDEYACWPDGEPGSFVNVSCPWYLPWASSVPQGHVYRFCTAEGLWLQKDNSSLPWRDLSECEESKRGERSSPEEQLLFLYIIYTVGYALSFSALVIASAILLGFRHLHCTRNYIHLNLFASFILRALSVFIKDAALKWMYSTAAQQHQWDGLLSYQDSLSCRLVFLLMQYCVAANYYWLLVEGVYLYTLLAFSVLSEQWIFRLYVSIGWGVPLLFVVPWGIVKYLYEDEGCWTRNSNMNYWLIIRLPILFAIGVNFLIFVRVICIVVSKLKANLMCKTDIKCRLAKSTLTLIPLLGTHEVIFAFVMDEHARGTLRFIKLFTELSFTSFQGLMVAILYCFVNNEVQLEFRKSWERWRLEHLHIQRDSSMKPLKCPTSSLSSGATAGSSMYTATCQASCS

For the compound `COCCn1c(Cc2ccc(-c3cccc(OCc4ccc(C#N)cc4F)n3)cc2C#CC2(CO)CC2)nc2ccc(C(=O)O)cc21` [Example 240, 2-(4-(6-((4-cyano-2-fluorobenzyl)oxy)pyridin-2-yl)-2-((1-(hydroxymethyl)cyclopropyl)ethynyl)benzyl)-1-(2-methoxyethyl)-1H-benzo[d]imidazole-6-carboxylic acid], the EC50 on GLP-1R stood at 6.82 nM. The “Predicted Hepatic Clearance (Pred. Cl.)” value in data set [1] was 13.7 mL/min/kg.
Take `COCCn1c(Cc2cc(F)c(-c3cccc(OCc4ccc(C#N)cc4F)n3)cc2Cl)nc2ccc(C(=O)O)cc21` [Example 304, 2-(2-chloro-4-(6-((4-cyano-2-fluorobenzyl)oxy)pyridin-2-yl)-5-fluorobenzyl)-1-(2-methoxyethyl)-1H-benzo[d]imidazole-6-carboxylic acid]: the EC50 at GLP-1R came out at 0.5 nM. In data set [1], the “Predicted Hepatic Clearance (Pred. Cl.)” value is 5.33 mL/min/kg.
The like results for `COCCn1c(Cc2ccc(-c3cccc(OCc4ccc(C#N)cc4F)n3)cc2N)nc2ccc(C(=O)O)cc21` [Example 64, 2-(2-amino-4-(6-((4-cyano-2-fluorobenzyl)oxy)pyridin-2-yl)benzyl)-1-(2-methoxyethyl)-1H-benzo[d]imidazole-6-carboxylic acid] were, in that order, 67 nM and 3.5 mL/min/kg.
Take `COCCn1c(Cc2cc(F)c(-c3cccc(OCc4ccc(C)nc4)n3)cc2F)nc2ccc(C(=O)O)cc21` [Example 811]: the concentration for a half-maximal effect (EC50) at GLP-1R came out at 3.57 nM. In addition, the “Predicted Hepatic Clearance (Pred. Cl.)” value in data set [1] was 10 mL/min/kg.
Turning to `COCCn1c(Cc2cc(Cl)c(-c3cccc(OCc4ccc(C#N)cc4F)n3)cc2F)nc2ccc(C(=O)O)cc21` [Example 314, 2-(5-chloro-4-(6-((4-cyano-2-fluorobenzyl)oxy)pyridin-2-yl)-2-fluorobenzyl)-1-(2-methoxyethyl)-1H-benzo[d]imidazole-6-carboxylic acid], the EC50 on GLP-1R is 12.5 nM. For the same compound, the “Predicted Hepatic Clearance (Pred. Cl.)” value in data set [1] is 5 mL/min/kg.
`NC(=O)c1ccc(COc2cccc(-c3cc(F)c(Cc4nc5ccc(C(=O)O)cc5n4C[C@@H]4CCO4)cc3F)n2)cn1` [Example 826]: the EC50 on GLP-1R came to 0.28 nM. In data set [1], the “Predicted Hepatic Clearance (Pred. Cl.)” value is 3.67 mL/min/kg.
For `O=C(O)c1cc(F)c2nc(Cc3cc(F)c(-c4cccc(OCc5ccc(C(F)F)cc5F)n4)cc3F)n(CC34CC(CO3)C4)c2c1` [Example 669], in that order: 0.28 nM and 1.83 mL/min/kg.
With `N#Cc1ccc(COc2cccc(-c3cc(F)c(Cc4nc5ccc(C(=O)O)cc5n4CC4(COC(F)F)CC4)cc3F)n2)c(F)c1` [Example 730], the EC50 at GLP-1R amounted to 0.98 nM. Further, in data set [1], the “Predicted Hepatic Clearance (Pred. Cl.)” value is 1.83 mL/min/kg.
Turning to `N#Cc1ccc(COc2cccc(-c3cc(F)c(Cc4nc5ccc(C(=O)O)cc5n4C4CCCOC4)cc3F)n2)c(F)c1` (stereo not drawn) [Example 838], the EC50 at GLP-1R came to 3.6 nM. Besides, the “Predicted Hepatic Clearance (Pred. Cl.)” value in data set [1] was 4.33 mL/min/kg.
The like results for `N#Cc1ccc(COc2cccc(-c3cc(F)c(Cc4nc5ccc(C(=O)O)cc5n4[C@H]4CCCOC4)cc3F)n2)c(F)c1` [Example 545, 2-(4-(6-((4-cyano-2-fluorobenzyl)oxy)pyridin-2-yl)-2,5-difluorobenzyl)-1-(tetrahydro-2H-pyran-3-yl)-1H-benzo[d]imidazole-carboxylic acid] were, in that order, 6.9 nM and 6.67 mL/min/kg.
As to `COCC(COC)n1c(Cc2cc(F)c(-c3cccc(OCc4ccc(C#N)cc4F)n3)cc2F)nc2ccc(C(=O)O)cc21` [Example 732], on GLP-1R, the EC50 turned out to be 169 nM. Besides, the “Predicted Hepatic Clearance (Pred. Cl.)” value in data set [1] is 8.17 mL/min/kg.
Regarding `COC1(Cn2c(Cc3cc(F)c(-c4cccc(OCc5ccc(C#N)cc5F)n4)cc3F)nc3ccc(C(=O)O)cc32)CN(S(C)(=O)=O)C1` [Example 688], the EC50 on GLP-1R is 1220 nM. Moreover, the “Predicted Hepatic Clearance (Pred. Cl.)” value in data set [1] is 10.3 mL/min/kg.
For `COCCn1c(Cc2cc(F)c(-c3cccc(OCc4ccc(C#N)cc4F)n3)cc2F)nc2cc(Cl)c(C(=O)O)cc21` [Example 837], in that order: 29.3 nM and 1.83 mL/min/kg.
For `N#Cc1ccc(COc2ccnc(-c3cc(F)c(Cc4nc5ccc(C(=O)O)cc5n4C[C@@H]4CCO4)cc3F)n2)c(F)c1` [Example 451, (S)-2-(4-(4-((4-cyano-2-fluorobenzyl)oxy)pyrimidin-2-yl)-2,5-difluorobenzyl)-1-(oxetan-2-ylmethyl)-1H-benzo[d]imidazole-6-carboxylic acid], in that order: 0.16 nM and 4.83 mL/min/kg.
In the case of `N#Cc1ccc(COc2cccc(-c3cc(F)c(Cc4nc5ccc(C(=O)O)cc5n4C4CCCC4(F)F)cc3F)n2)c(F)c1` (stereo not drawn) [Example 700], at GLP-1R, the EC50 was determined as 3.48 nM. Further, the “Predicted Hepatic Clearance (Pred. Cl.)” value in data set [1] was 5.17 mL/min/kg.
The like results for `N#Cc1ccc(COc2cccc(-c3ccc(Cc4nc5ncc(C(=O)O)cc5n4CC4(CF)CC4)c(F)c3)n2)c(F)c1` [Example 94, 2-(4-(6-((4-cyano-2-fluorobenzyl)oxy)pyridin-2-yl)-2-fluorobenzyl)-1-((1-(fluoromethyl)cyclopropyl)methyl)-1H-imidazo[4,5-b]pyridine-6-carboxylic acid] were, in that order, 0.66 nM and less than 1.83 mL/min/kg.
Take `N#Cc1ccc(COc2cccc(-c3cc(F)c(Cc4nc5ccc(C(=O)O)cc5n4C[C@@H]4CCO4)cc3F)n2)c(F)c1` (single isomer, unassigned) [Example 757]: on GLP-1R, the EC50 was found to be 0.03 nM. Moreover, the “Predicted Hepatic Clearance (Pred. Cl.)” value in data set [1] is 4.33 mL/min/kg.
The like results for `CO[C@H]1CC[C@@H]1n1c(Cc2cc(F)c(-c3cccc(OCc4ccc(C#N)cc4F)n3)cc2F)nc2ccc(C(=O)O)cc21` [Example 701] were, in that order, 145 nM and 3.83 mL/min/kg.
Regarding `N#CCC1(Cn2c(Cc3cc(F)c(-c4cccc(OCc5ccc(C#N)cc5F)n4)cc3F)nc3ccc(C(=O)O)cc32)CC1` [Example 428, 2-(4-(6-((4-cyano-2-fluorobenzyl)oxy)pyridin-2-yl)-2,5-difluorobenzyl)-1-((1-(cyanomethyl)cyclopropyl)methyl)-1H-benzo[d]imidazole-6-carboxylic acid], on GLP-1R, the EC50 was determined as 0.13 nM. Also, in data set [1], the “Predicted Hepatic Clearance (Pred. Cl.)” value is 8.92 mL/min/kg.
Consider `O=C(O)c1ccc2nc(Cc3cc(F)c(-c4cccc(OCc5ccc(C(F)F)cc5F)n4)cc3F)n(Cc3ncco3)c2c1` [Example 608], for which, at GLP-1R, the EC50 came out at 0.74 nM. Moreover, the “Predicted Hepatic Clearance (Pred. Cl.)” value in data set [1] was 1.83 mL/min/kg.
On to `COCCn1c(Cc2ccc(-c3ccc(C)c(OCc4ccc(C#N)cc4F)n3)cc2)nc2ccc(C(=O)O)cc21` (single isomer, unassigned) [Example 24, 2-(4-(6-((4-cyano-2-fluorobenzyl)oxy)-5-methylpyridin-2-yl)benzyl)-1-(2-methoxyethyl)-1H-benzo[d]imidazole-6-carboxylic acid], for which the EC50 at GLP-1R stood at 1720 nM. Further, the “Predicted Hepatic Clearance (Pred. Cl.)” value in data set [1] is 2.17 mL/min/kg.
The like results for `Cc1nnc(Cn2c(Cc3cc(F)c(-c4cccc(OCc5ccc(C#N)cc5F)n4)cc3F)nc3ccc(C(=O)O)cc32)o1` [Example 748] were, in that order, 1320 nM and 1.83 mL/min/kg.
For `COC(C)(C)Cn1c(Cc2cc(F)c(-c3cccc(OCc4ccc(C#N)cc4F)n3)cc2F)nc2ccc(C(=O)O)cc21` [Example 586, 2-(4-(6-((4-cyano-2-fluorobenzyl)oxy)pyridin-2-yl)-2,5-difluorobenzyl)-1-(2-methoxy-2-methylpropyl)-1H-benzo[d]imidazole-6-carboxylic acid], in that order: 0.54 nM and 7.67 mL/min/kg.
For `N#Cc1ccc(COc2nc(-c3ccc(Cc4nc5c(F)cc(C(=O)O)cc5n4CC45CC(CO4)C5)c(F)c3)ccc2F)c(F)c1` [Example 771], in that order: 2.17 nM and 1.83 mL/min/kg.
As to `N#Cc1ccc(COc2cccc(-c3ccc(Cc4nc5ccc(C(=O)O)cc5n4Cc4cnco4)c(F)c3)n2)c(F)c1` [Example 402, 2-(4-(6-((4-cyano-2-fluorobenzyl)oxy)pyridin-2-yl)-2-fluorobenzyl)-1-(oxazol-5-ylmethyl)-1H-benzo[d]imidazole-6-carboxylic acid], the EC50 on GLP-1R was determined as 2.11 nM. The “Predicted Hepatic Clearance (Pred. Cl.)” value in data set [1] is 12 mL/min/kg.
`O=C(O)c1cc(F)c2nc(Cc3cc(F)c(-c4nc(OCc5ccc(C(F)(F)F)cc5F)ccc4F)cc3F)n(C[C@@H]3CCO3)c2c1` [Example 781]: the EC50 at GLP-1R was determined as 0.03 nM. In addition, in data set [1], the “Predicted Hepatic Clearance (Pred. Cl.)” value was 3.17 mL/min/kg.
For `N#Cc1ccc(COc2cccc(-c3cc(F)c(Cc4nc5c(F)cc(C(=O)O)cc5n4C[C@@H]4CCCO4)cc3F)n2)c(F)c1` [Example 831], in that order: 0.24 nM and 2.83 mL/min/kg.
Take `COCCn1c(Cc2ccc(-c3cccc(OC4CCOc5cc(C#N)ccc54)n3)cc2F)nc2ccc(C(=O)O)cc21` (stereo not drawn) [Example 246, 2-(4-(6-((7-cyanochroman-4-yl)oxy)pyridin-2-yl)-2-fluorobenzyl)-1-(2-methoxyethyl)-1H-benzo[d]imidazole-6-carboxylic acid]: the EC50 at GLP-1R is 1110 nM. The “Predicted Hepatic Clearance (Pred. Cl.)” value in data set [1] was 4.67 mL/min/kg.
For `N#Cc1ccc(COc2cccc(-c3ccc(Cc4nc5ccc(C(=O)O)cc5n4Cc4cscn4)c(F)c3)n2)c(F)c1` [Example 454, 2-(4-(6-((4-cyano-2-fluorobenzyl)oxy)pyridin-2-yl)-2-fluorobenzyl)-1-(thiazol-4-ylmethyl)-1H-benzo[d]imidazole-6-carboxylic acid], in that order: 5.53 nM and 4.67 mL/min/kg.
The like results for `N#CCCn1c(Cc2cc(F)c(-c3cccc(OCc4ccc(C#N)cc4F)n3)cc2F)nc2ccc(C(=O)O)cc21` [Example 305, 2-(4-(6-((4-cyano-2-fluorobenzyl)oxy)pyridin-2-yl)-2,5-difluorobenzyl)-1-(2-cyanoethyl)-1H-benzo[d]imidazole-6-carboxylic acid] were, in that order, 1.25 nM and 4.67 mL/min/kg.
